Here are results for 30 compounds from US10471046B2, “Method for treating, preventing, or reducing the risk of skin infection” (Melinta Subsidiary Corp., priority 2014, dated 2019).

Converted amounts (≈) assume the structure as drawn.

For this assay, the system named is S. aureus. Put plainly: Minimum inhibitory concentrations (MICs) for S. aureus of exemplary compounds (Table 2). Type of assay: cell-based. As to conditions: Staphylococcus aureus, minimum inhibitory concentrations for S. aureus; read-out: MICs. The gist of the method:
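Growth of S. aureus in media with or without compound, by broth microdilution in microtiter trays following NCCLS M7-A5 guidelines. Values are MICs in μg/mL.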

As to `CC(=O)NC[C@H]1CN(c2ccc(-c3ccc(CNCc4csc(-c5ccccc5)n4)cc3)c(F)c2)C(=O)O1` [Compound 4122, N-[3-(2-Fluoro-4′-{[(2-phenyl-thiazol-4-ylmethyl)-amino]-methyl}-biphenyl-4-yl)-2-oxo-oxazolidin-5-(S)-ylmethyl]-acetamide], the MIC is 1 µg/mL (≈ 1.88 µM). As for `CC(=O)NC[C@H]1CN(c2ccc(-c3ccc(CCn4ccnn4)cc3)c(F)c2)C(=O)O1` [Compound 1001, N-{3-[2-Fluoro-4′-(2-[1,2,3]triazol-1-yl-ethyl)-biphenyl-4-yl]-2-oxo-oxazolidin-5-(S)-ylmethyl}-acetamide], the MIC stood at 2 µg/mL (≈ 4.72 µM). Take `CSCCNc1ncnc2c1ncn2Cc1ccc(-c2ccc(N3C[C@H](CNC(C)=O)OC3=O)cc2F)cc1` [Compound 1108]: the MIC worked out at 2 µg/mL (≈ 3.64 µM).

For the compound `CC(=O)NC[C@H]1CN(c2ccc(-c3ccc(CN4CCN(CC#N)CC4)c(F)c3)c(F)c2)C(=O)O1` [Compound 1005, N-{3-[4′-(4-Cyanomethyl-piperazin-1-ylmethyl)-2,3′-difluoro-biphenyl-4-yl]-2-oxo-oxazolidin-5-(S)-ylmethyl}-acetamide], the MIC turned out to be 2 µg/mL (≈ 4.14 µM). For `CC(=O)NC[C@H]1CC(c2ccc(-c3ccc(CNC(=O)c4ccccc4C(=O)O)cc3)nc2)=NO1` [Compound 4107, N-(4-{5-[5-(R)-(Acetylamino-methyl)-4,5-(S)-dihydro-isoxazol-3-yl]-pyridin-2-yl}-benzyl)-phthalamic acid], the MIC turned out to be 128 µg/mL (≈ 271 µM). To `CC(=O)NC[C@H]1CN(c2ccc(-c3ccc(CNCC4CCCN4)cc3)c(F)c2)C(=O)O1` (mixture of isomers) [Compound 4279, N-[3-(2-Fluoro-4′-{[(pyrrolidin-2-(R/S)-ylmethyl)-amino]-methyl}-biphenyl-4-yl)-2-oxo-oxazolidin-5-(S)-ylmethyl]-acetamide] belongs 4 µg/mL; to `CC(=O)NC[C@H]1CN(c2ccc(-c3ccc(CNCc4cccn4S(=O)(=O)c4ccccc4)cc3)c(F)c2)C(=O)O1` [Compound 4100, N-[3-(4′-{[(1-Benzenesulfonyl-1H-pyrrol-2-ylmethyl)-amino]-methyl}-2-fluoro-biphenyl-4-yl)-2-oxo-oxazolidin-5-(S)-ylmethyl]-acetamide], 4 µg/mL (≈ 6.94 µM). The result for `CC(=O)NC[C@H]1CN(c2ccc(-c3ccc([C@H](O)CN(CCCF)Cc4ccccc4)cc3)c(F)c2)C(=O)O1` [Compound 4247, N-[3-(4′-{2-[Benzyl-(3-fluoro-propyl)-amino]-1-(S)-hydroxy-ethyl}-2-fluoro-biphenyl-4-yl)-2-oxo-oxazolidin-5-(S)-ylmethyl]-acetamide] reads 8 µg/mL (≈ 14.9 µM); that for `CC(=O)NC[C@H]1CN(c2ccc(-c3ccc(CNCc4c(C)nn(C)c4C)cc3)c(F)c2)C(=O)O1` [Compound 4163, N-[3-(2-Fluoro-4′-{[(1,3,5-trimethyl-1H-pyrazol-4-ylmethyl)-amino]-methyl}-biphenyl-4-yl)-2-oxo-oxazolidin-5-(S)-ylmethyl]-acetamide], 8 µg/mL (≈ 16.7 µM); that for `CC(=O)NC[C@H]1CN(c2ccc(-c3ccc(CNC(C(N)=O)c4cccnc4)cc3)c(F)c2)C(=O)O1` (stereo partly drawn) [Compound 4293, 2-({4′-[5-(S)-(Acetylamino-methyl)-2-oxo-oxazolidin-3-yl]-2′-fluoro-biphenyl-4-ylmethyl}-amino)-2-pyridin-3-yl-acetamide], 4 µg/mL (≈ 8.14 µM).

As for `CC(=O)NC[C@H]1CN(c2ccc(-c3ccc(CNCc4ccc(-c5ccccn5)s4)cc3)c(F)c2)C(=O)O1` [Compound 4119, N-[3-(2-Fluoro-4′-{[(5-pyridin-2-yl-thiophen-2-ylmethyl)-amino]-methyl}-biphenyl-4-yl)-2-oxo-oxazolidin-5-(S)-ylmethyl]-acetamide], the MIC amounted to 1 µg/mL (≈ 1.88 µM). The result for `CC(=O)NC[C@H]1CN(c2ccc(-c3ccc(Cn4cnnn4)cc3)c(F)c2)C(=O)O1` [Compound 1047, N-[3-(2-Fluoro-4′-tetrazol-1-ylmethyl-biphenyl-4-yl)-2-oxo-oxazolidin-5-(S)-ylmethyl]-acetamide] reads 0.25 µg/mL (≈ 0.609 µM); that for `CC(=O)NC[C@H]1CN(c2ccc(-c3ccc(CNC(=O)C4CCC(=O)N4)cc3)c(F)c2)C(=O)O1` (stereo partly drawn) [Compound 4289, 5-Oxo-pyrrolidine-2-carboxylic acid {4′-[5-(S)-(acetylamino-methyl)-2-oxo-oxazolidin-3-yl]-2′-fluoro-biphenyl-4-ylmethyl}-amide], 8 µg/mL (≈ 17.1 µM).

As for `CC(=O)NC[C@H]1CN(c2ccc(-c3ccc(C[S+]([O-])c4nncs4)cc3)c(F)c2)C(=O)O1` (stereo partly drawn) [Compound 2035, N-{3-[2-Fluoro-4′-([1,3,4]thiadiazole-2-sulfinylmethyl)-biphenyl-4-yl]-2-oxo-oxazolidin-5-(S)-ylmethyl}-acetamide], the MIC came to 1 µg/mL (≈ 2.11 µM). To `CC(=O)NC[C@H]1CN(c2ccc(-c3ccc(NC(=O)Nc4ccncc4)cc3)c(F)c2)C(=O)O1` [Compound 6006, N-{3-[2-Fluoro-4′-(3-pyridin-4-yl-ureido)-biphenyl-4-yl]-2-oxo-oxazolidin-5-(S)-ylmethyl}-acetamide] belongs 128 µg/mL (≈ 276 µM); to `CC(=O)NC[C@H]1CN(c2ccc(-c3ccc(Cn4ccnc4)c(F)c3)c(F)c2)C(=O)O1` [Compound 1010, N-[3-(2,3′-Difluoro-4′-imidazol-1-ylmethyl-biphenyl-4-yl)-2-oxo-oxazolidin-5-(S)-ylmethyl]-acetamide], 1 µg/mL (≈ 2.35 µM); to `CC(=O)NC[C@H]1CN(c2ccc(-c3ccc(CSCc4ccccn4)cc3)c(F)c2)C(=O)O1` [Compound 4216, N-{3-[2-Fluoro-4′-(pyridin-2-ylmethylsulfanylmethyl)-biphenyl-4-yl]-2-oxo-oxazolidin-5-(S)-ylmethyl}-acetamide], 0.5 µg/mL (≈ 1.07 µM).

Consider `CC(=O)NC[C@H]1CN(c2ccc(-c3ccc(Cn4nnnc4Cl)cc3)c(F)c2)C(=O)O1` [Compound 1083, N-{3-[4′-(5-Chloro-tetrazol-1-ylmethyl)-2-fluoro-biphenyl-4-yl]-2-oxo-oxazolidin-5-(S)-ylmethyl}-acetamide], for which the MIC worked out at 0.5 µg/mL (≈ 1.12 µM). The result for `CO/N=C(\CNCc1cocn1)c1ccc(-c2ccc(N3C[C@H](CNC(C)=O)OC3=O)cc2F)cc1` [Compound 4255, N-[3-(2-Fluoro-4′-{1-methoxyimino-2-[(oxazol-4-ylmethyl)-amino]-ethyl}-biphenyl-4-yl)-2-oxo-oxazolidin-5-(S)-ylmethyl]-acetamide] reads 2 µg/mL (≈ 4.04 µM); that for `CC(=O)NC[C@H]1CN(c2ccc(-c3ccc(CNCc4csc5ccccc45)cc3)c(F)c2)C(=O)O1` [Compound 4077, N-[3-(4′-{[(Benzo[b]thiophen-3-ylmethyl)-amino]-methyl}-2-fluoro-biphenyl-4-yl)-2-oxo-oxazolidin-5-(S)-ylmethyl]-acetamide], 16 µg/mL (≈ 31.8 µM). Regarding `CC(=O)NC[C@H]1CN(c2ccc(-c3ccc(CNC(=O)C4CCN4C(=O)OC(C)(C)C)cc3)c(F)c2)C(=O)O1` (stereo partly drawn) [Compound 4295, 2-({4′-[5-(S)-(Acetylamino-methyl)-2-oxo-oxazolidin-3-yl]-2′-fluoro-biphenyl-4-ylmethyl}-carbamoyl)-azetidine-1-carboxylic acid tert-butyl ester], the MIC was 8 µg/mL (≈ 14.8 µM).

Turning to `CC(=O)NC[C@H]1CN(c2ccc(-c3ccc(Cc4nnn[nH]4)cc3)c(F)c2)C(=O)O1` [Compound 1007, N-{3-[2-Fluoro-4′-(1H-tetrazol-5-(S)-ylmethyl)-biphenyl-4-yl]-2-oxo-oxazolidin-5-(S)-ylmethyl}-acetamide], the MIC worked out at 8 µg/mL (≈ 19.5 µM). The result for `CC(=O)NC[C@H]1CN(c2ccc(-c3ccc(CSc4cnn[nH]4)nc3)c(F)c2)C(=O)O1` [Compound 2040, N-(3-{3-Fluoro-4-[6-(3H-[1,2,3]triazol-4-ylsulfanylmethyl)-pyridin-3-yl]-phenyl}-2-oxo-oxazolidin-5-(S)-ylmethyl)-acetamide] reads 0.25 µg/mL (≈ 0.565 µM). To `CC(=O)NC[C@H]1CN(c2ccc(-c3ccc([C@H](CO)N4CCN(C=O)CC4)cc3)c(F)c2)C(=O)O1` [Compound 1045, N-(3-{2-Fluoro-4′-[1-(R)-(4-formyl-piperazin-1-yl)-2-hydroxy-ethyl]-biphenyl-4-yl}-2-oxo-oxazolidin-5-(S)-ylmethyl)-acetamide] belongs 0.5 µg/mL (≈ 1.03 µM); to `CC(=O)NC[C@H]1CN(c2ccc(-c3ccc(CNC(=O)[C@@H]4C[C@@H](O)CN4)cc3)c(F)c2)C(=O)O1` [Compound 4301, 4-(R)-Hydroxy-pyrrolidine-2-(S)-carboxylicacid {4′-[5-(S)-(acetylamino-methyl)-2-oxo-oxazolidin-3-yl]-2′-fluoro-biphenyl-4-ylmethyl}-amide], 8 µg/mL (≈ 17 µM). The result for `CC(=O)NC[C@H]1CN(c2ccc(-c3ccc(CNCc4c(N)oc5ccccc5c4=O)cc3)c(F)c2)C(=O)O1` [Compound 4129, N-[3-(4′-{[(2-Amino-4-oxo-4H-chromen-3-ylmethyl)-amino]-methyl}-2-fluoro-biphenyl-4-yl)-2-oxo-oxazolidin-5-(S)-ylmethyl]-acetamide] reads 4 µg/mL (≈ 7.54 µM). Take `CC(=O)NC[C@H]1CN(c2ccc(-c3ccc(C(=O)NCCc4ccccn4)cc3)c(F)c2)C(=O)O1` [Compound 4115, 4′-[5-(S)-(Acetylamino-methyl)-2-oxo-oxazolidin-3-yl]-2′-fluoro-biphenyl-4-carboxylic acid (2-pyridin-2-yl-ethyl)-amide]: the MIC worked out at 0.5 µg/mL (≈ 1.05 µM).

In the case of `CC(=O)NC[C@H]1CN(c2ccc(-c3ccc(CNCCCn4ccnn4)cc3)c(F)c2)C(=O)O1` [Compound 4264, N-(3-{2-Fluoro-4′-[(3-[1,2,3]triazol-1-yl-propylamino)-methyl]-biphenyl-4-yl}-2-oxo-oxazolidin-5-(S)-ylmethyl)-acetamide], the MIC was 4 µg/mL (≈ 8.57 µM). To `CC(=O)NC[C@H]1CN(c2ccc(-c3ccc(CNCc4[nH]cnc4C)cc3)c(F)c2)C(=O)O1` [Compound 4082, N-[3-(2-Fluoro-4′-{[(5-methyl-3H-imidazol-4-ylmethyl)-amino]-methyl}-biphenyl-4-yl)-2-oxo-oxazolidin-5-(S)-ylmethyl]-acetamide] belongs 32 µg/mL (≈ 70.9 µM); to `CC(=O)NC[C@H]1CN(c2ccc(-c3ccc(CNCc4noc(C)n4)cc3)c(F)c2)C(=O)O1` [Compound 4141, N-[3-(2-Fluoro-4′-{[(5-methyl-[1,2,4]oxadiazol-3-ylmethyl)-amino]-methyl}-biphenyl-4-yl)-2-oxo-oxazolidin-5-(S)-ylmethyl]-acetamide], 2 µg/mL (≈ 4.41 µM).
